The record followed here is ChEMBL document CHEMBL1129939, “Meta-substituted benzofused macrocyclic lactams as zinc metalloprotease inhibitors” (J Med Chem, 1997).

Each structure is given as a SMILES string.

Test [1] concerns the target Angiotensin-converting enzyme (Homo sapiens, UniProt P12821). Kind of test: Inhibitory concentration required to inhibit Angiotensin I converting enzyme (ACE).
A further test has as its target T1, Thermolysin (Bacillus thermoproteolyticus, UniProt P00800).
T1 sequence (P00800 whole entry): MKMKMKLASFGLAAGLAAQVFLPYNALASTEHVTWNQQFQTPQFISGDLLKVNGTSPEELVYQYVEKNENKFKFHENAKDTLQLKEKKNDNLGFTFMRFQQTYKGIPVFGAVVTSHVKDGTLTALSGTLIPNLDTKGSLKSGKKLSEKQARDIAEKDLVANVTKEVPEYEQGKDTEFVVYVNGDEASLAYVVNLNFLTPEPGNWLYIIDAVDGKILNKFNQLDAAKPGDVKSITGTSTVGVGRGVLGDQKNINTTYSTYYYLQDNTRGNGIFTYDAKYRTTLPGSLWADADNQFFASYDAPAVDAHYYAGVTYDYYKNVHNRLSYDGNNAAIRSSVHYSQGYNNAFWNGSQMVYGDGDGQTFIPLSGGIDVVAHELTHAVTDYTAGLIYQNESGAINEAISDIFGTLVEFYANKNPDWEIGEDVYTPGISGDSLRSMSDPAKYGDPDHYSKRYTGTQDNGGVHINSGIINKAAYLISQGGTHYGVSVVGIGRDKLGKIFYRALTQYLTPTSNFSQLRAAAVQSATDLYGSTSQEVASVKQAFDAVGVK
Kind of test: Inhibitory concentration required to inhibit thermolysin (TLN).

In the next test the target is Neprilysin (Homo sapiens, UniProt P08473). Kind of test: Inhibitory concentration required to inhibit neutral endopeptidase (NEP).
Sequence of Neprilysin (P08473 whole entry): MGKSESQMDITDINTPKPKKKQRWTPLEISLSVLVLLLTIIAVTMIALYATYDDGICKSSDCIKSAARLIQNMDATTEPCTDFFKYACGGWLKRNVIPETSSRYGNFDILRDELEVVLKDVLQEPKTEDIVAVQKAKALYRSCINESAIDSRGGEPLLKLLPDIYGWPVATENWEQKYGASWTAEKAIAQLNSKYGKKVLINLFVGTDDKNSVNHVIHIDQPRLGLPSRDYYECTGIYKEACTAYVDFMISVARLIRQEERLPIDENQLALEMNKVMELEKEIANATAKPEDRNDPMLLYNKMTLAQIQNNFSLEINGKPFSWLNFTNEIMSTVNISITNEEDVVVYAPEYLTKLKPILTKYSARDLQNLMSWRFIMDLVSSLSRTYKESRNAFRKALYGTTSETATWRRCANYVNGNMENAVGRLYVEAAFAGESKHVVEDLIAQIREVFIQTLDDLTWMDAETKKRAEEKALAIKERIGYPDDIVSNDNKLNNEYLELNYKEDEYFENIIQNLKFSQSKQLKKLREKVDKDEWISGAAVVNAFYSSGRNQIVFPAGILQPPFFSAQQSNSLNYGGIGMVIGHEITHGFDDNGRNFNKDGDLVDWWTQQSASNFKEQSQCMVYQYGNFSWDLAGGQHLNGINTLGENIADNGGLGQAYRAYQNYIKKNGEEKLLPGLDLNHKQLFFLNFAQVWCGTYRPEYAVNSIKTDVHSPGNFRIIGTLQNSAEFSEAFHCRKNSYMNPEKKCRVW

Sequence of Angiotensin-converting enzyme (P12821 whole entry): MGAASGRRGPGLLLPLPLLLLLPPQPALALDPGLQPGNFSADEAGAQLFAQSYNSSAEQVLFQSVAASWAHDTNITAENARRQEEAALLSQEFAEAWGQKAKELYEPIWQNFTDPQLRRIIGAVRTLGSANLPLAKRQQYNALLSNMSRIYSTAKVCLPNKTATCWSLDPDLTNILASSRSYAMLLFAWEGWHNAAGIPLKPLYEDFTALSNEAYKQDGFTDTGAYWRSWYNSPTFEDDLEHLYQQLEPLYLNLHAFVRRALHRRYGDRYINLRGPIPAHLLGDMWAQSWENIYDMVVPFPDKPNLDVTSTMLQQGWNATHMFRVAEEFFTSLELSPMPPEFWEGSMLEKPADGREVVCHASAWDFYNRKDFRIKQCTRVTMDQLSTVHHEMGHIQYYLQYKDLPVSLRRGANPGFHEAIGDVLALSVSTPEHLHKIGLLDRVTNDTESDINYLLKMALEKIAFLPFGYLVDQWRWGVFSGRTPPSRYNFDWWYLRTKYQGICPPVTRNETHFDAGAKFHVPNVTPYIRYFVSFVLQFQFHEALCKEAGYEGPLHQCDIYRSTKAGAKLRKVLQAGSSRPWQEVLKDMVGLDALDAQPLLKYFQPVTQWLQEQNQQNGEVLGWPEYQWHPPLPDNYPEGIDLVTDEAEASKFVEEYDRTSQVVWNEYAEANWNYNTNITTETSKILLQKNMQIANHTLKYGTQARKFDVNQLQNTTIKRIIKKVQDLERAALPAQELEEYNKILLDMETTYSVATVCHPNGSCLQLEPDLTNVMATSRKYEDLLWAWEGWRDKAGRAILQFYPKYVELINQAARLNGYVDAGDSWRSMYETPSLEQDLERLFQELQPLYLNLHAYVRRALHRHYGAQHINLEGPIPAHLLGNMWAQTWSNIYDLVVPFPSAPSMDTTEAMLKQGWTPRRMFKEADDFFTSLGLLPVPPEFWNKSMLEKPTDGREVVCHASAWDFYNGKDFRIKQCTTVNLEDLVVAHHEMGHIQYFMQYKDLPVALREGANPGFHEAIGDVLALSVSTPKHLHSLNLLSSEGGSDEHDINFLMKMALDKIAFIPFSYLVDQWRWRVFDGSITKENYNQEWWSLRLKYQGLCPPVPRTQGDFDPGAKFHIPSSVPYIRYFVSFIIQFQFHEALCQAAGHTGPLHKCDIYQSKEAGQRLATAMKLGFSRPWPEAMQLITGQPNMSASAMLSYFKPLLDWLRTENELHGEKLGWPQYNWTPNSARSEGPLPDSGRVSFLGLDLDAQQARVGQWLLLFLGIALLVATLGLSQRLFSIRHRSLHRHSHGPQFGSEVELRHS

Take `O=C1N[C@H](C(=O)O)CCCCCCc2ccccc2C[C@H]1CS`: the IC50 in test [1] is over 10000 nM; against Thermolysin it was 41000 nM; against Neprilysin, 224 nM.

As for `O=C1N[C@H](C(=O)O)CCCCCc2cccc(c2)C[C@@H]1CS`, the values for the half-maximal inhibitory concentration (IC50) (in test [1]; at Thermolysin; at Neprilysin) were 4 nM, 48000 nM and 8 nM, respectively.

As for `O=C1N[C@H](C(=O)O)CCCCCCc2cccc(c2)C[C@H]1CS`, the concentration for half-maximal inhibition (IC50) in test [1] was 118 nM; on Thermolysin, over 10000 nM; against Neprilysin, 445 nM.

In turn, `O=C1N[C@H](C(=O)O)Cc2ccccc2CCCCCC[C@@H]1CS` had an IC50 in test [1] of 725 nM.

With `O=C1N[C@@H](C(=O)O)Cc2ccccc2CCCCC[C@@H]1CS`, it took 6000 nM to reach half-maximal inhibition in test [1] (IC50).

`C[C@H](CS)C(=O)N1Cc2[nH]c3ccccc3c2CC1C(=O)O` (some centres not stated) had an IC50 in test [1] of 500 nM.

For `O=C1N[C@H](C(=O)O)CCCCCc2cccc(c2)C[C@H]1CS`, the IC50 in test [1] was 1400 nM; against Thermolysin, over 10000 nM; against Neprilysin, 1000 nM.

In turn, `O=C1N[C@@H](C(=O)O)Cc2ccccc2CCCCCC[C@@H]1CS` yielded an IC50 in test [1] of 470 nM.

`O=C1N[C@H](C(=O)O)CCCCCCc2ccccc2C[C@@H]1CS`: the values for the 50% inhibitory concentration (IC50) (in test [1]; on Thermolysin; against Neprilysin) were over 10000 nM, 1800 nM and 27 nM, respectively.

Take `O=C1N[C@H](C(=O)O)CCCCc2ccccc2C[C@@H]1CS`: in test [1], the IC50 is over 10000 nM.

In turn, `O=C1N[C@H](C(=O)O)CCCCCc2ccccc2C[C@@H]1CS` displayed an IC50 in test [1] of 8000 nM.

`O=C1N[C@H](C(=O)O)CCCCc2ccccc2C[C@H]1CS` had an IC50 in test [1] of over 10000 nM.

`O=C1N[C@H](C(=O)O)CCCCCc2ccccc2C[C@H]1CS` yielded an IC50 in test [1] of 2000 nM. This counts as single-digit micromolar.

As for `O=C1N[C@H](C(=O)O)CCCCCCc2cccc(c2)C[C@@H]1CS`, the IC50 in test [1] amounted to 175 nM; against Thermolysin, 34000 nM; at Neprilysin, 4 nM.

Take `O=C1N[C@@H](C(=O)O)Cc2ccccc2CCCCCCC[C@@H]1CS`: the half-inhibitory concentration (IC50) in test [1] was over 10000 nM.

The term IC50 denotes the concentration needed to halve the response being measured. The low end stands for higher potency, the high end for lower potency.
